Read-outs that look alike come from different tables or passages of the source.
System: HCV 1b genotype
Test: HCV Replicon assay, 1b genotype
Format: cell-based
Settings: Hepatitis C virus, HCV 1b genotype replicon
Procedure: An HCV Replicon assay was utilized in the present disclosure, and was prepared, conducted and validated as described in commonly owned PCT/US2006/022197 and in O'Boyle et. al. Antimicrob Agents Chemother. 2005 April; 49(4):1346-53. Assay methods incorporating luciferase reporters have also been used as described (Apath.com).
HCV-neo replicon cells and replicon cells containing mutations in the NS5A region were used to test the currently described family of compounds. The compounds were determined to have more than 10-fold less inhibitory activity on cells containing mutations than wild-type cells. Thus, the compounds of the present disclosure can be effective in inhibiting the function of the HCV NS5A protein and are understood to be as effective in combinations as previously described in application PCT/US2006/022197 and commonly owned WO/O4014852. Further, the compounds of the present disclosure can be effective against the HCV 1b genotype. It should also be understood that the compounds of the present disclosure can inhibit multiple genotypes of HCV. […] In one embodiment, compounds of the present disclosure are inhibitory versus 1a, 1b, 2a, 2b, 3a, 4a, and 5a genotypes.

Row | SMILES | EC50 (read-out: 1b EC50) [nM] | EC50 (read-out: 1b EC50 in Range) [nM]
1 | COC(=O)N[C@H](C(=O)N1[C@H](c2ncc(-c3ccc(-c4ccc(-c5cnc([C@@H]6CCN(C)N6C(=O)[C@@H](NC(=O)OC)C(C)C)[nH]5)cc4)cc3)[nH]2)CCN1C)C(C)C [Example 1, methyl ((1S)-1-(((5S)-5-(5-(4′-(2-((3S)-2-((2S)-2-((methoxycarbonyl)amino)-3-methylbutanoyl)-1-methyl-3-pyrazolidinyl)-1H-imidazol-5-yl)-4-biphenylyl)-1H-imidazol-2-yl)-2-methyl-1-pyrazolidinyl)carbonyl)-2-methylpropyl)carbamate] | 0.003 | 
2 | COC(=O)N[C@H](C(=O)N1[C@H](c2ncc(-c3ccc(C#Cc4ccc(-c5cnc([C@@H]6CCN(C)N6C(=O)[C@@H](NC(=O)OC)C(C)C)[nH]5)cc4)cc3)[nH]2)CCN1C)C(C)C [Example 8, methyl ((1S)-1-(((5S)-5-(5-(4-((4-(2-((3S)-2-((2S)-2-((methoxycarbonyl)amino)-3-methylbutanoyl)-1-methyl-3-pyrazolidinyl)-1H-imidazol-5-yl)phenyl)ethynyl)phenyl)-1H-imidazol-2-yl)-2-methyl-1-pyrazolidinyl)carbonyl)-2-methylpropyl)carbamate] | 0.2 | 0.101 to 0.999
3 | COC(=O)N[C@@H](C(=O)N1CCCN1c1nc(-c2ccc(-c3ccc(-c4c[nH]c(N5CCCN5C(=O)[C@H](NC(=O)OC)c5ccccc5)n4)cc3)cc2)c[nH]1)c1ccccc1 [Example 12, dimethyl (4,4′-biphenyldiylbis(1H-imidazole-4,2-diyl-2,1-pyrazolidinediyl((1R)-2-oxo-1-phenyl-2,1-ethanediyl)))biscarbamate] |  | 0.101 to 0.999
4 | COC(=O)N[C@H](C(=O)N1CCCN1c1nc(-c2ccc(-c3ccc(-c4c[nH]c(N5CCCN5C(=O)[C@@H](NC(=O)OC)C(C)C)n4)cc3)cc2)c[nH]1)C(C)C [Example 11, methyl ((1S)-1-((2-(4-(4′-(2-(2-((2S)-2-((methoxycarbonyl)amino)-3-methylbutanoyl)-1-pyrazolidinyl)-1H-imidazol-4-yl)-4-biphenylyl)-1H-imidazol-2-yl)-1-pyrazolidinyl)carbonyl)-2-methylpropyl)carbamate] | < 13.7 | 1 to 99
5 | O=C(OCc1ccccc1)N1CCCN1c1nc(-c2ccc(-c3ccc(-c4c[nH]c(N5CCCN5C(=O)OCc5ccccc5)n4)cc3)cc2)c[nH]1 [Example 10, dibenzyl 2,2′-(4,4′-biphenyldiylbis(1H-imidazole-4,2-diyl))di(1-pyrazolidinecarboxylate)] |  | 1 to 99
